These results are taken from patent US11406605B2, “Therapeutic compositions for treating pancreatic cancer” (Golden Biotechnology Corporation, priority 2017, dated 2022).

In data set [1] the test system is AsPC-1 pancreatic cancer cells. Put plainly: Cytotoxicity of test articles (TC50), MTT assay. Type of data set: cell-based, Human. Conditions: concentration at which cell viability was reduced to 50%. The protocol:
The human pancreatic carcinoma cell lines, AsPC-1, PANC-1 and CaPan-2 were seeded 3×10^4 cells per well and cultured in a forty-eight (48) well cell culture dish (growth area 0.95 cm^2 per well). Sixteen (16) hours later, cells were treated Compound 1 alone or Compound 1 with a clinical chemotherapy drug, respectively. After 48 or 72 hours of the treatment, methylthiazoletetrazolium (MTT) assay (supplemental protocol-1) was performed to measure the effect of treatment on the viability of cells during proliferation.
B. Cell Preparation • 1. Remove and discard culture medium. • 2. Briefly rinse the cell layer with 5 mL HBSS. Gently shake and remove the HBSS. • 3. Add 5 mL trypsin-EDTA to 15 cm^2 polystyrene dishes. Incubate 5 mins at 37° C. in a humidified incubator with 95% air/5% CO2 atmosphere. • 4. Add 5 mL of complete growth medium (DMEM medium containing 10% FBS) and aspirate cells by gently pipetting. • 5. Count live cells using the trypan blue exclusion assay (supplemental protocol-2) with a hemocytometer. • 6. For in vitro study, cells will be seeded 3×10^4 cells per well and cultured in a forty-eight (48) wells cell culture dish for sixteen (16) hours until treatment. • 7. Incubate cultures at 37° C.
a. Cytotoxicity of test articles (TC50): AsPC-1 was seeded 3×10^4 cells (counted by Cell counter, LUNA™ Automated Cell Counter or hemocytometer) per well and cultured in a 48 wells cell culture dish. Cells were treated with single article from 400 or 800 μM with serial dilution to 0 μM. After 48 or 72 hours of treated, MTT assay was performed to measure the effect of treatment on the viability of AsPC-1 cells during proliferation. The absorbance at 595 nm was measured using a microplate reader (BioTEK, Synergy™ H1). Article sensitivity curves and TC50 values were calculated using GraphPad Prism 4.0 software.
For orientation: Tetrazolium dyes change colour on reduction, which living cells bring about.

For data set [2], the system named is metastatic pancreatic adenocarcinoma. Conditions: previously untreated metastatic pancreatic adenocarcinoma; cited from earlier work.
For data set [3], the system named is advanced pancreatic cancer. Conditions: patients with advanced pancreatic cancer; cited from earlier work.
Data set [4] deals with advanced pancreatic cancer. Conditions: people with advanced pancreatic cancer; cited from earlier work.
Setting [5] is: Homo sapiens, ASPC1, AsPC-1 cells, 48 hrs.
Setting [6] is: Homo sapiens, ASPC1, AsPC-1 cells, 72 hrs.

Regarding `O=c1[nH]cc(F)c(=O)[nH]1` [Compound 5-FU, 5-Fluorouracil], the CC50 in data set [1] (setting [5]) and in data set [1] (setting [6]) was over 800 µM each time.
Take `C#Cc1cccc(Nc2ncnc3cc(OCCOC)c(OCCOC)cc23)c1` [Erlotinib]: the half-maximal cytotoxic concentration (CC50) in data set [1] (setting [5]) and in data set [1] (setting [6]) was over 800 µM each time.
Turning to `Nc1ccn([C@@H]2O[C@H](CO)[C@@H](O)C2(F)F)c(=O)n1` [Gemcitabine], in data set [1] (setting [5]), the CC50 (in general, the concentration that lowers cell viability or growth by half) was over 800 µM. Further, the CC50 in data set [1] (setting [6]) was over 800 µM. Also, in data set [2], the “Median PFS” value is given as 3.7 months and the “median OS” value is reported as 6.7 months. In data set [3], the “Median progression-free survival (PFS)” value is 3.3 months and the “median overall survival (OS)” value is recorded as 6.8 months. For the same molecule, the “improvement in median survival duration” value in data set [4] was 5 week.
Take `CCc1c2c(nc3ccc(OC(=O)N4CCC(N5CCCCC5)CC4)cc13)-c1cc3c(c(=O)n1C2)COC(=O)[C@]3(O)CC` [Irinotecan]: the CC50 in data set [1] (setting [5]) was determined as 221 µM; in data set [1] (setting [6]), 68.3 µM.
Regarding `O=C1[O][Pt]2([NH][C@@H]3CCCC[C@H]3[NH]2)[O]C1=O` [Oxaliplatin], the CC50 in data set [1] (AsPC-1 cells, 48 hrs) is 655 µM; in data set [1] (AsPC-1 cells, 72 hrs), 57.9 µM.
`CC(=O)O[C@H]1C(=O)[C@@]2(C)[C@H]([C@H](OC(=O)c3ccccc3)[C@]3(O)C[C@H](OC(=O)[C@H](O)[C@@H](NC(=O)c4ccccc4)c4ccccc4)C(C)=C1C3(C)C)[C@]1(OC(C)=O)CO[C@@H]1C[C@@H]2O` [Paclitaxel]: the CC50 was 7.05 µM in data set [1] (setting [5]) and 3.72 µM in data set [1] (setting [6]).
